# Measurements as given in patent US20110251066A1, “ISOXAZOLE DERIVATIVES FOR USE AS PLANT GROWTH REGULATORS” (SYNGENTA CROP PROTECTION LLC, priority 2008, published 2011).
# Tests used:
# [1] = tested on: grape seedlings cultivar (cv.) Gutedel; test: Plant growth regulation effects on grape seedlings; format: in vivo; settings: 200 ppm, spray chamber, 8 days at 22° C. and 80% r.h.
# Method: Five weeks old grape seedlings cultivar (cv.) Gutedel were treated with the formulated test compound in a spray chamber. After an incubation period of 8 days at 22° C. and 80% relative humidity (r.h.) in a greenhouse, the plant growth regulating effects were assessed.
# [2] = tested on: wheat plants cultivar (cv.). Riband; test: Plant growth regulation effects on wheat plants; format: in vivo; settings: 200 ppm, spray chamber, 8 days at 22° C. and 80% r.h.
# Method: Two weeks old wheat plants cultivar (cv.). Riband were treated with the formulated test compound in a spray chamber. After an incubation period of 8 days at 22° C. and 80% relative humidity (r.h.) in a greenhouse, the plant growth regulating effects were assessed.
# winter wheat = test: Plant growth effects on cereals: spray at beginning of stem elongation, visual growth reduction; format: in vivo; settings: 225 g a.i./ha spray, 28 days after spray, visually evaluated versus untreated control
# Excerpt: (§1) Plants of winter wheat and summer wheat were sprayed at the beginning of stem elongation, three weeks after sowing. Formulated test compounds 144, 145 and 146 were sprayed at 225 g a.i. (active ingredient)/ha, each, top over leaf with a boom sprayer on the plants. After the spray the plants were transferred to a greenhouse and 28 days after the spray the plant growth reduction was visually evaluated versus an untreated control.
# summer wheat = test: as above; format: in vivo; settings: 225 g a.i./ha spray, 28 days after spray, visually evaluated versus untreated control
# Excerpt: as §1
# [3] = PGR activity of separated enantiomers (test not specified); settings: (R)- versus (S)-enantiomer of compound 146
# Botrytis cinerea = test: Fungal growth inhibition in nutrient broth, microtiter plate, photometric; format: cell-based; settings: 200 ppm, 24° C., 72 hours
# Method: (§2) Botrytis cinerea (Gray mould): Conidia of the fungus from cryogenic storage were directly mixed into nutrient broth (PDB potato dextrose broth). After placing a (DMSO) solution of the test compounds into a microtiter plate (96-well format) the nutrient broth containing the fungal spores was added. The test plates were incubated at 24° C. and the inhibition of growth was determined photometrically after 72 hours. Compound (S)-(146) gave at least 80% control of Botrytis cinerea at 200 ppm.
# Monographella nivalis = test: as above; format: cell-based; settings: 200 ppm, 24° C., 72 hours, 620 nm
# Method: as §2, with “Monographella nivalis (syn. Microdochium nivale, Fusarium nivale), snow mould, foot rot of cereals:” for “Botrytis cinerea (Gray mould):”, “hours at 620 nm.” for “hours.”, “Monographella nivalis” for “Botrytis cinerea”
# Rhizoctonia solani = test: as above; format: cell-based; settings: 200 ppm, 24° C., 48 h
# Method: as §2, with “Rhizoctonia solani (foot rot, damping-off): Mycelial fragments” for “Botrytis cinerea (Gray mould): Conidia”, “fungus, prepared” for “fungus”, “a fresh liquid culture,” for “cryogenic storage”, “mycelium” for “spores”, “48 h.” for “72 hours.”, “Rhizoctonia solani” for “Botrytis cinerea”
# Fusarium culmorum = test: as above; format: cell-based; settings: 200 ppm, 24° C., 48 hours
# Method: as §2, with “Fusarium culmorum (root rot):” for “Botrytis cinerea (Gray mould):”, “48” for “72”, “Fusarium culmorum” for “Botrytis cinerea”
# Septoria tritici = test: as above; format: cell-based; settings: 200 ppm, 24° C., 72 hours
# Method: as §2, with “Septoria tritici (leaf blotch):” for “Botrytis cinerea (Gray mould):”, “Septoria tritici” for “Botrytis cinerea”
# Mycosphaerella arachidis = test: as above; format: cell-based, Mycosphaerella arachidis (syn. Cercospora arachidicola); settings: 200 ppm, 24° C., 72 hours, 620 nm
# Method: as §2, with “Mycosphaerella arachidis (syn. Cercospora arachidicola), Brown leaf spot of groundnut (peanut):” for “Botrytis cinerea (Gray mould):”, “hours at 620 nm.” for “hours.”, “Mycosphaerella arachidis” for “Botrytis cinerea”
compound,measurement,setting,value
"OC(c1cccnc1)c1c(-c2ccc(F)cc2F)noc1-c1ccc(F)cc1Cl (stereo not drawn) [Compound 152, 3-(2,4-Diluoro)-5-(2-Chloro-4-Fluorophenyl)-4-[(3-pyridyl)hydroxymethyl]-isoxazole]",plant growth regulating effect (plant height),[1],plant height decreased
OC(c1cncnc1)c1c(-c2ccc(Cl)cc2F)noc1-c1ccc(F)cc1F (stereo not drawn) [Compound 144],plant growth regulating effect (plant height),[2],plant height decreased
same,plant growth regulating effect (plant height),[1],plant height decreased
same,Winter Wheat % reduction (plant growth reduction),winter wheat,7.5%
same,Summer Wheat % reduction (plant growth reduction),summer wheat,10%
"OC(c1cncnc1)c1c(-c2ccc(Cl)cc2)noc1-c1ccc(F)cc1 (stereo not drawn) [Compound 150, 3-(4-Chlorophenyl)-5-(4-Fluorophenyl)-4-[(3-pyrimidyl)hydroxymethyl]-isoxazole]",plant growth regulating effect (plant height),[1],plant height decreased
"O[C@H](c1cccnc1)c1c(-c2ccc(Cl)cc2F)noc1-c1ccc(F)cc1F (single isomer, unassigned) [Compound 153]","PGR activity, enantiomer comparison",[3],majority of PGR activity
same,plant growth regulating effect (plant height),[1],plant height decreased
"OC(c1cncnc1)c1c(-c2ccc(Cl)cc2Cl)noc1-c1ccccc1Cl (stereo not drawn) [Compound 147, 3-(2,4-Chlorophenyl)-5-(2-Chlorophenyl)-4-[(3-pyrimidyl)hydroxymethyl]-isoxazole]",plant growth regulating effect (plant height),[1],plant height decreased
"OC(c1cccnc1)c1c(-c2ccc(Cl)cc2F)noc1-c1ccc(F)cc1F (stereo not drawn) [Compound 146, 3-(2-Fluoro-4-Chlorophenyl)-5-(2,4-difluorophenyl)-4-[(3-pyridyl)hydroxymethyl]-isoxazole]",melting point,,138 to 140 °C
same,Winter Wheat % reduction (plant growth reduction),winter wheat,10%
same,Summer Wheat % reduction (plant growth reduction),summer wheat,10%
"OC(c1cncnc1)c1c(-c2ccc(Cl)cc2F)noc1-c1ccccc1Cl (stereo not drawn) [Compound 148, 3-(2-Fluoro-4-Chlorophenyl)-5-(2-Chlorophenyl)-4-[(3-pyrimidyl)hydroxymethyl]-isoxazole]",plant growth regulating effect (plant height),[1],plant height decreased
"COc1ncccc1-c1onc(-c2ccc(Cl)cc2)c1C(O)c1cncnc1 (stereo not drawn) [Compound 149, 3-(4-Chlorophenyl)-5-(2-Methoxypyridine)-4-[(3-pyrimidyl)hydroxymethyl]-isoxazole]",plant growth regulating effect (plant height),[1],plant height decreased
"OC(c1cncnc1)c1c(-c2ccc(Cl)cc2)noc1-c1ccc(F)cc1F (stereo not drawn) [Compound 151, 3-(4-Chlorophenyl)-5-(2,4-Fluorophenyl)-4-[(3-pyrimidyl)hydroxymethyl]-isoxazole]",plant growth regulating effect (plant height),[1],plant height decreased
OC(c1cncnc1)c1c(-c2ccc(Cl)cc2)noc1-c1ccc(F)cc1F (stereo not drawn) [Compound 145],plant growth regulating effect (plant height),[1],plant height decreased
same,Winter Wheat % reduction (plant growth reduction),winter wheat,5%
same,Summer Wheat % reduction (plant growth reduction),summer wheat,17.5%
"O[C@@H](c1cccnc1)c1c(-c2ccc(Cl)cc2F)noc1-c1ccc(F)cc1F (single isomer, unassigned) [Compound (S)-(146)]",control of Botrytis cinerea,Botrytis cinerea,at least 80%
same,control of Monographella nivalis,Monographella nivalis,at least 80%
same,control of Rhizoctonia solani,Rhizoctonia solani,at least 80%
same,control of Fusarium culmorum,Fusarium culmorum,at least 80%
same,control of Septoria tritici,Septoria tritici,at least 80%
same,control of Mycosphaerella arachidis,Mycosphaerella arachidis,at least 80%
